Source: patent US7326689B2, “Pseudomycins useful against plant diseases” (Eli Lilly and Company, priority 2000, dated 2008)

Tests used:
Assay in all cases: Antifungal growth assay in potato dextrose broth, 24-well
Assay type in all cases: cell-based
Monilinia sp. = conditions: 2x assays
Experimental: (§1) Fungi to be tested were propagated on potato dextrose agar (PDA) plates at room temperature. Stock solutions of pseudomycins and depsipeptide were suspended in dimethylsulfoxide (DMSO) (Sigma) at 5 mg/ml and stored at −20C. Serial dilutions of compounds were done the day of the experiment. All serial dilutions were made in DMSO. […] These are noted in the raw data section.
(§2) Assays were performed in 24-well cell culture clusters (Costar 3524), with 990 ul potato dextrose broth (PDB, Difco) and 10 ul of the compound to be tested in each well. Initial concentrations tested were 50-1.56 ug/ml (final concentration of pseudomycin). Actual concentrations of pseudomycins tested were 50, 25, 12.5, 6.25, 3.12 and 1.56 ug/ml. Each well was inoculated with the appropriate fungus. Unless noted, the fungal inoculum consisted of an ˜4 mm^2 piece of PDA with fungal mycelium. The exceptions were as follows. Ustilago maydis: this fungus grows much like a yeast on PDA, and cells were scraped from the PDA stock plate, resuspended in PDB and 10 ul inoculum added to each well. Monilinia sp.: this fungal mycelium grows as a very loose sheet on top of PDA and would not adhere to agar blocks. Fungal mycelium was ground with a metal rod in 500 ul PDB and 10 ul inoculum was added to each well. Mycosphaeella fijiensis, Septoria passerinii, Septoria triticii: these fungi all grow very slowly and the results were difficult to score if a small piece of agar with fungal mycelium on it was used as an inoculum. For these fungi, the mycelium was ground with a metal rod in 500 ul PDB and 10 ul inoculum was added to each well.
(§3) Wells were scored for fungal growth at two days and five days. Some slow growing fungi were scored at later days for growth because assessment was not possible at two or five days. Growth was scored by comparison to a control consisting of fungus inoculated into 990 ul potato dextrose broth and 10 ul of DMSO (Dimethylsulfoxide). An additional control consisting of fungal inoculum in PDB only was performed to ensure that the DMSO was not inhibitory to fungal growth.
(§4) For assays that were repeated, new stock solutions were made from a second shipment of pseudomycins. Note that pseudomycin B′ and depsipeptide stock solutions were remade from first shipment materials because these were not included in the second shipment. […] Actual concentrations of pseudomycins tested were 2, 1, 0.5, 0.25, 0.125 and 0.0625 ug/ml. A-PO4 and A-FB=pseudomycin A phosphate salt and free base respectively.
(§5) Table 2: Two day results—concentration indicated is lowest level of compound (ug /ml) that results is no growth. NI, no inhibition; p (partial), at least 50% inhibited; -, not determined. If number of assays was greater than one, number of assays performed on the fungus is noted in parentheses. For several slow-growing fungi, days elapsed before observation (if different than two) are noted.
(§6) Table 3: Five day results—concentration indicated is lowest level of compound (ug /ml) that results in no growth. NI, no inhibition; p (partial), at least 50% inhibited; -, not performed on the fungus is noted in parentheses. For several slow-growing fungi, days elapsed before observation (if different than five) are noted.

Septoria passerinii = conditions: 3x assays
Experimental: as §1, §2, §3, §4, §5, §6

Geotrichim candidum = conditions: 3x assays
Experimental: as §1, §2, §3, §4, §5, §6

Penicillium roqueforti = conditions: 3x assays
Experimental: as §1, §2, §3, §4, §5, §6

Drechslera portulacae = conditions: 3x assays
Experimental: as §1, §2, §3, §4, §5, §6

[1] = tested on: Mycosphaeella fijiensis (8088/88); conditions: 3x assays
Experimental: as §1, §2, §3, §4, §5, §6

Rhizoctonia solani = conditions: 2x assays
Experimental: as §1, §2, §3, §4, §5, §6

[2] = tested on: Mycosphaeella fijiensis (Sigatoka); conditions: 3x assays
Experimental: as §1, §2, §3, §4, §5, §6

Septoria tritici = conditions: 3x assays
Experimental: as §1, §2, §3, §4, §5, §6

Ustilago maydis = conditions: 3x assays
Experimental: as §1, §2, §3, §4, §5, §6

Fusarium solani = tested on: Fusarium solani; design: key: NI, no inhibition; p (partial), at least 50% inhibited
Experimental: as §1, §2, §3, §4, §5, §6

Fusarium avenaceum = tested on: Fusarium avenaceum; design: key: NI, no inhibition; p (partial), at least 50% inhibited
Experimental: as §1, §2, §3, §4, §5, §6

Diplodia natalensis = tested on: Diplodia natalensis; design: key: NI, no inhibition; p (partial), at least 50% inhibited
Experimental: as §1, §2, §3, §4, §5, §6

[3] = tested on: Pestalotiopsis microspora NE-32; design: key: NI, no inhibition; p (partial), at least 50% inhibited
Experimental: as §1, §2, §3, §4, §5, §6

Phytophthora cactorum = tested on: Phytophthora cactorum; design: key: NI, no inhibition; p (partial), at least 50% inhibited
Experimental: as §1, §2, §3, §4, §5, §6

Phytophthora ultimum = tested on: Phytophthora ultimum; design: key: NI, no inhibition; p (partial), at least 50% inhibited
Experimental: as §1, §2, §3, §4, §5, §6

Sclerotinia sclerotiorum = tested on: Sclerotinia sclerotiorum; design: key: NI, no inhibition; p (partial), at least 50% inhibited; conditions: 2x assays
Experimental: as §1, §2, §3, §4, §5, §6

[4] = tested on: Drechslera tritici-repentis; design: key: NI, no inhibition; p (partial), at least 50% inhibited
Experimental: as §1, §2, §3, §4, §5, §6

Tapesia acuformis = tested on: Tapesia acuformis; design: key: NI, no inhibition; p (partial), at least 50% inhibited; conditions: 2x assays
Experimental: as §1, §2, §3, §4, §5, §6

Stagonospora nodorum = tested on: Stagonospora nodorum; design: key: NI, no inhibition; p (partial), at least 50% inhibited
Experimental: as §1, §2, §3, §4, §5, §6

Botrytis alli = tested on: Botrytis alli; design: key: NI, no inhibition; p (partial), at least 50% inhibited; conditions: 2x assays
Experimental: as §1, §2, §3, §4, §5, §6

[5] = Table 2 (two day results), observed at 7 day
[6] = Table 3 (five day results), observed at 21 days

Substance: pseudomycin A-PO4
- lowest level of compound that results in no growth (Monilinia sp.; five day results): 12.5 µg/mL
- lowest level of compound that results in no growth (Monilinia sp.; two day results): 12.5 µg/mL
- lowest level of compound that results in no growth (Septoria passerinii; five day results): 0.12 µg/mL
- lowest level of compound that results in no growth (Septoria passerinii; two day results): 0.125 µg/mL
- lowest level of compound that results in no growth (Geotrichim candidum; five day results): 6.25 µg/mL
- lowest level of compound that results in no growth (Geotrichim candidum; two day results): 12.5 µg/mL
- lowest level of compound that results in no growth (Penicillium roqueforti; five day results): 3.12 µg/mL
- lowest level of compound that results in no growth (Penicillium roqueforti; two day results): 0.5 µg/mL
- lowest level of compound that results in no growth (Drechslera portulacae; Table 3 (five day results), observed at 9 day, listed as A-PO4): 0.06 µg/mL
- lowest level of compound that results in no growth (Drechslera portulacae; Table 3 (five day results), observed at 9 day, listed as pseudomycin A (PO4)): 0.0625 µg/mL
- lowest level of compound that results in no growth (Drechslera portulacae; two day results): 0.06 µg/mL
- lowest level of compound that results in no growth [1, 5]: 0.12 µg/mL
- lowest level of compound that results in no growth [1, 6]: 0.25 µg/mL
- lowest level of compound that results in no growth (Rhizoctonia solani; five day results): 12.5 µg/mL
- lowest level of compound that results in no growth (Rhizoctonia solani; two day results): 6.25 µg/mL
- lowest level of compound that results in no growth [2, 5]: 1 µg/mL
- lowest level of compound that results in no growth [2, 6]: 1 µg/mL
- lowest level of compound that results in no growth (Septoria tritici; five day results): 0.25 µg/mL
- lowest level of compound that results in no growth (Septoria tritici; two day results): 0.25 µg/mL
- lowest level of compound that results in no growth (Ustilago maydis; five day results): 1 µg/mL
- lowest level of compound that results in no growth (Ustilago maydis; two day results): 0.5 µg/mL
- lowest level of compound that results in no growth (Fusarium solani; five day results): NI
- lowest level of compound that results in no growth (Fusarium solani; two day results): NI
- lowest level of compound that results in no growth (Fusarium avenaceum; five day results): NI
- lowest level of compound that results in no growth (Fusarium avenaceum; two day results): NI
- lowest level of compound that results in no growth (Diplodia natalensis; five day results): NI
- lowest level of compound that results in no growth (Diplodia natalensis; two day results): NI
- lowest level of compound that results in no growth ([3]; five day results): NI
- lowest level of compound that results in no growth ([3]; two day results): p at 50
- lowest level of compound that results in no growth (Phytophthora cactorum; five day results): NI
- lowest level of compound that results in no growth (Phytophthora cactorum; two day results): NI
- lowest level of compound that results in no growth (Phytophthora ultimum; five day results): NI
- lowest level of compound that results in no growth (Phytophthora ultimum; two day results): NI
- lowest level of compound that results in no growth (Sclerotinia sclerotiorum; five day results): NI
- lowest level of compound that results in no growth (Sclerotinia sclerotiorum; two day results): NI
- lowest level of compound that results in no growth ([4]; five day results): p at 50
- lowest level of compound that results in no growth ([4]; two day results, 2x assays): 50 µg/mL
- lowest level of compound that results in no growth (Tapesia acuformis; five day results): 50 µg/mL
- lowest level of compound that results in no growth (Tapesia acuformis; two day results): 50 µg/mL
- lowest level of compound that results in no growth (Stagonospora nodorum; five day results): NI
- lowest level of compound that results in no growth (Stagonospora nodorum; two day results): NI
- lowest level of compound that results in no growth (Botrytis alli; five day results): p at 50
- lowest level of compound that results in no growth (Botrytis alli; two day results): 50 µg/mL

Substance: Pseudomycin B′
- lowest level of compound that results in no growth (Monilinia sp.; five day results): 25 µg/mL
- lowest level of compound that results in no growth (Monilinia sp.; two day results): 25 µg/mL
- lowest level of compound that results in no growth (Septoria passerinii; five day results): 0.5 µg/mL
- lowest level of compound that results in no growth (Septoria passerinii; two day results): 0.5 µg/mL
- lowest level of compound that results in no growth (Geotrichim candidum; five day results): 25 µg/mL
- lowest level of compound that results in no growth (Geotrichim candidum; two day results): 25 µg/mL
- lowest level of compound that results in no growth (Penicillium roqueforti; five day results): 1.56 µg/mL
- lowest level of compound that results in no growth (Penicillium roqueforti; two day results): 1.56 µg/mL
- lowest level of compound that results in no growth (Drechslera portulacae; Table 3 (five day results), observed at 9 day): 0.25 µg/mL
- lowest level of compound that results in no growth (Drechslera portulacae; two day results): 0.12 µg/mL
- lowest level of compound that results in no growth [1, 5]: 0.5 µg/mL
- lowest level of compound that results in no growth [1, 6]: 1 µg/mL
- lowest level of compound that results in no growth (Rhizoctonia solani; five day results): 6.25 µg/mL
- lowest level of compound that results in no growth (Rhizoctonia solani; two day results): 6.25 µg/mL
- lowest level of compound that results in no growth [2, 5]: 0.5 µg/mL
- lowest level of compound that results in no growth [2, 6]: 1 µg/mL
- lowest level of compound that results in no growth (Septoria tritici; five day results): 0.5 µg/mL
- lowest level of compound that results in no growth (Septoria tritici; two day results): 0.5 µg/mL
- lowest level of compound that results in no growth (Ustilago maydis; five day results): 3.12 µg/mL
- lowest level of compound that results in no growth (Ustilago maydis; two day results): 1.56 µg/mL
- lowest level of compound that results in no growth (Fusarium solani; five day results): NI
- lowest level of compound that results in no growth (Fusarium solani; two day results): NI
- lowest level of compound that results in no growth (Fusarium avenaceum; five day results): NI
- lowest level of compound that results in no growth (Fusarium avenaceum; two day results): NI
- lowest level of compound that results in no growth (Diplodia natalensis; five day results): NI
- lowest level of compound that results in no growth (Diplodia natalensis; two day results): NI
- lowest level of compound that results in no growth ([3]; five day results): NI
- lowest level of compound that results in no growth ([3]; two day results): NI
- lowest level of compound that results in no growth (Phytophthora cactorum; five day results): NI
- lowest level of compound that results in no growth (Phytophthora cactorum; two day results): NI
- lowest level of compound that results in no growth (Phytophthora ultimum; five day results): NI
- lowest level of compound that results in no growth (Phytophthora ultimum; two day results): NI
- lowest level of compound that results in no growth (Sclerotinia sclerotiorum; five day results): NI
- lowest level of compound that results in no growth (Sclerotinia sclerotiorum; two day results): NI
- lowest level of compound that results in no growth ([4]; five day results): p at 50
- lowest level of compound that results in no growth ([4]; two day results, 2x assays): 50 µg/mL
- lowest level of compound that results in no growth (Tapesia acuformis; five day results): NI
- lowest level of compound that results in no growth (Tapesia acuformis; two day results): NI
- lowest level of compound that results in no growth (Stagonospora nodorum; five day results): NI
- lowest level of compound that results in no growth (Stagonospora nodorum; two day results): NI
- lowest level of compound that results in no growth (Botrytis alli; five day results): NI
- lowest level of compound that results in no growth (Botrytis alli; two day results): NI
